Assay results as given in ChEMBL document CHEMBL5725341, “Tricyclic compounds for use as kinase inhibitors” (2017).

Legend:
[1] = biological target: Serine/threonine-protein kinase pim-1 (Homo sapiens, UniProt P11309); assay: PIM-1 Biochemical Assay: The biochemical assay to measure PIM-1 activity relies on the ADP Hunter assay kit (DiscoveRx Corp., Cat. #90-0077), that determines the amount of ADP as direct product of the kinase enzyme activity.
[2] = biological target: Serine/threonine-protein kinase pim-2 (Homo sapiens, UniProt Q9P1W9); assay: PIM-2 Biochemical Assay: The biochemical assay to measure PIM-2 activity relies on the ADP Hunter assay kit (DiscoveRx Corp., Cat. #90-0077), that determines the amount of ADP as direct product of the kinase enzyme activity.
[3] = biological target: Serine/threonine-protein kinase pim-3 (Homo sapiens, UniProt Q86V86); assay: PIM-3 Biochemical Assay: The biochemical assay to measure PIM-3 activity relies on the ADP Hunter assay kit (DiscoveRx Corp., Cat. #90-0077), that determines the amount of ADP as direct product of the kinase enzyme activity.

Serine/threonine-protein kinase pim-2, sequence (Q9P1W9 whole entry): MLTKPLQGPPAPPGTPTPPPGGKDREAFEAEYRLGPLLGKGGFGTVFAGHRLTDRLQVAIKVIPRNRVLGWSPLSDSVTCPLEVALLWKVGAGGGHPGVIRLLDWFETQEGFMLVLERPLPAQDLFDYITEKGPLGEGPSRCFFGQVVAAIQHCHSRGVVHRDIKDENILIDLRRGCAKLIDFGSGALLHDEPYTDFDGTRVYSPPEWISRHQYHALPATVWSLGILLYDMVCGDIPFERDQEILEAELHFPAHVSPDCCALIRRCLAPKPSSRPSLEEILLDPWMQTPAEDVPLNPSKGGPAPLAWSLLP
Serine/threonine-protein kinase pim-1, sequence (P11309 whole entry): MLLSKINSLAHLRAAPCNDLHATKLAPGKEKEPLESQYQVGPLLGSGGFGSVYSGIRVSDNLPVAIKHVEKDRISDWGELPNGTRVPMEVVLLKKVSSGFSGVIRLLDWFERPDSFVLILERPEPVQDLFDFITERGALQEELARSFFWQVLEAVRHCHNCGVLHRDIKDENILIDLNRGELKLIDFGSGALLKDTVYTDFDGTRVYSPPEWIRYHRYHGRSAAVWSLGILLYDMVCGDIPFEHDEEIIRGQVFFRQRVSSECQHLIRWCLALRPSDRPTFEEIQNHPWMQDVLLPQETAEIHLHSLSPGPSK

Structure (SMILES) | IC50 [1] [nM] | IC50 [2] [nM] | IC50 [3] [nM]
CN1CCOc2c(NCCN3CCOCC3)nn3c(-c4cccc(OC(F)(F)F)c4)nnc3c21 | > 1000 | > 1000 | –
CN1CCOc2c1c(NCCN1CCOCC1)nn1c(-c3cccc(OC(F)(F)F)c3)nnc21 | < 100 | – | –
CN1CCOc2c(N3CCC(N(C)C)CC3)nn3c(-c4cccc(OC(F)(F)F)c4)nnc3c21 | > 1000 | > 1000 | –
CN1CCOc2c(NCCN3CCNCC3)nn3c(-c4cccc(OC(F)(F)F)c4)nnc3c21 | – | > 1000 | –

Results, then the compound that gave them:

IC50 [1] [nM] | IC50 [2] [nM] | IC50 [3] [nM] | Structure (SMILES)
> 1000 | > 1000 | – | CN1CCN(CCNc2nn3c(-c4cccc(OC(F)(F)F)c4)nnc3c3c2OCCN3C)CC1
< 100 | – | – | CN1CCOc2c1c(NCCc1cccnc1)nn1c(-c3cccc(OC(F)(F)F)c3)nnc21
< 100 | > 1000 | – | CN1CCOc2c1c(NCC13CCN(CC1)C3)nn1c(-c3cccc(OC(F)(F)F)c3)nnc21
< 100 | – | < 100 | CN1CCOc2c1c(NCC1CC3(CCNCC3)C1)nn1c(-c3cccc(OC(F)(F)F)c3)nnc21
